Test results: PMC4535766, “Antiprotozoal Activity Profiling of Approved Drugs: A Starting Point toward Drug Repositioning” (PLoS ONE, 2015)
Counter-ions that a name gives are not always drawn. Like-named read-outs stand apart in the source and are kept apart here.

Assays:
[1] = tested on: T. b. rhodesiense strain STIB 900, trypomastigotes; assay: In vitro activity against T. b. rhodesiense, serial drug dilution assay; conditions: for IC50: Trypanosoma brucei; for Activity against T. b. rhodesiense (in words): in vitro
Protocol: (§1) Drug stock solutions (10mg/ml) were in DMSO (100%). […] Selectivity index (SI) was calculated as IC50 L6 cells/IC50 parasite.

[2] = in vitro; conditions: rat
Protocol: as §1

[3] = tested on: T. cruzi, strain Tulahuen C4, intracellular amastigotes; assay: microbe, parasite or virus in culture; conditions: for IC50: Trypanosoma cruzi, TULAHUEN; for selectivity ratio: rat, Selectivity index: IC50 Cytotoxicity L6/ IC50 T. cruzi
Protocol: as §1

[4] = tested on: axenic amastigotes of L. donovani, strain MHOM-ET-67/L82; assay: In vitro activity against L. donovani axenic amastigotes, serial drug dilution assay; format: cell-based, Leishmania donovani
Protocol: as §1

[5] = tested on: L. donovani strain MHOM-ET-67/L82 amastigotes; assay: in vitro; conditions: mouse
Outline: (§2)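 Axenic amastigotes grown at pH 5.4 infected mouse peritoneal macrophages for 4 h before free parasites were washed off. Next day, seven 3-fold drug dilutions (30–0.04 μg/ml) were added for 96 h. Giemsa-stained infected macrophages were counted, burden reduction was taken vs untreated controls, and IC50 came from linear regression.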

[6] = tested on: intracellular amastigotes of L. donovani strain MHOM-ET-67/L82; assay: Activity against Leishmania donovani intracellular amastigotes in mouse peritoneal macrophages; conditions: for IC50: Leishmania donovani, Peritoneal macrophage, in Mus musculus
Outline: as §2

[7] = tested on: P. falciparum strain K1; assay: In vitro activity against P. falciparum, serial drug dilution assay; conditions: for IC50: Plasmodium falciparum; for selectivity ratio: rat; for Activity against P. falciparum (in words): in vitro
Protocol: as §1

[8] = Cytotoxicity on macrophages infected with L. donovani; format: cell-based, mouse; conditions: mouse
[9] = In vitro cytotoxicity with mouse peritoneal macrophages (Alamar Blue); format: cell-based
Protocol: After 96 h of incubation, the plates were inspected under an inverted microscope to assure sterility. […] The IC50 values were calculated by linear regression from the sigmoidal dose inhibition curves using SoftmaxPro software (Molecular Devices Cooperation, Sunnyvale, CA, USA).

[10] = tested on: macrophages infected with L. donovani; assay: Cytotoxicity on macrophages infected with L. donovani; format: cell-based, mouse
[11] = Leishmania donovani, axenic amastigotes, strain MHOM-ET-67/L82, means of two independent assays, read-out: IC50 L. don. axen.
[12] = 96 h, read-out: IC50 L. don. intracell
[13] = macrophages infected with L. donovani, read-out: IC50 Cytotox. mac.inf.
[14] = axenic amastigotes, strain MHOM-ET-67/L82, means of two independent assays, read-out: IC50 L. don. axen.
[15] = Selectivity index: IC50 Cytotoxicity macrophages/ IC50 L. donovani
[16] = Selectivity index: IC50 Cytotoxicity L6/ IC50 P. falciparum
[17] = Leishmania donovani, L. donovani axenic amastigotes, read-out: L. don. axen. IC50
[18] = read-out: L. don. intracell IC50
[19] = infected macrophages, read-out: Cytotox. mac.inf. IC50
[20] = rat, L6 cells versus T. b. rhodesiense STIB 900 trypomastigotes
[21] = mouse peritoneal macrophages versus L. donovani amastigotes, Selectivity index: IC50 Cytotoxicity macrophages/ IC50 L. donovani, axenic or intracellular IC50 not specified
[22] = L6 cells, IC50 Cytotox. L6, L6 cells, means of two independent assays

| SMILES | IC50 ([1]; read-out: IC50 T. b. rhod.) | IC50 ([3]; read-out: IC50 T. cruzi) | IC50 [4, 11] | IC50 [6, 12] | IC50 ([7]; K1, read-out: IC50 P. falc. K1) | IC50 at 96 h [8, 13] | IC50 at 96 h ([9]; mouse) | IC50 ([2]; IC50 Cytotox. L6) | selectivity ratio at 96 h [5, 15] | IC50 ([3]; read-out: T. cruzi IC50) | further results |
| --- | --- | --- | --- | --- | --- | --- | --- | --- | --- | --- | --- |
| C[C@@H]1[C@H](O)[C@@H](C)/C=C/C=C/C=C/C=C/C=C/C=C/C=C/[C@H](O[C@@H]2O[C@H](C)[C@@H](O)[C@H](N)[C@@H]2O)C[C@@H]2O[C@](O)(C[C@@H](O)C[C@@H](O)[C@H](O)CC[C@@H](O)C[C@@H](O)CC(=O)O[C@H]1C)C[C@H](O)[C@H]2C(=O)O [Amphotericin B] | 0.76 µM | 56.7 µM | 0.34 µM | 0.31 µM | 0.8 µM | 32.4 µM | 22.4 µM | – | – | – | selectivity ratio ([1]; rat): 14; IC50 [2]: 10.3 µM; selectivity ratio at 96 h [5]: 95; selectivity ratio [7]: 13 |
| C[C@H]1[C@H](OC(=O)CCC(=O)O)O[C@@H]2O[C@@]3(C)CC[C@H]4[C@H](C)CC[C@@H]1[C@@]24OO3 [Artesunate] | 16.8 µM | 8.97 µM | – | > 7.8 µM | 0.003 µM | > 7.8 µM | – | 0.78 µM | > 22 | – | IC50 ([4]; axenic amastigotes, strain MHOM-ET-67/L82, means of two independent assays, listed as artesunate, read-out: IC50 L. don. axen.): < 3 µM; IC50 [4, 14]: 0.35 µM; selectivity ratio [7, 16]: 260 |
| CC(C)/N=c1\cc2n(-c3ccc(Cl)cc3)c3ccccc3nc-2cc1Nc1ccc(Cl)cc1 [Clofazimine] | – | – | 22.4 µM | 0.95 µM | – | 6.34 µM | 10.7 µM | – | ~10 | 38.2 µM | IC50 ([1]; read-out: T. b. rhod. IC50): 7.63 µM; IC50 ([2]; Cytotox. L6 IC50): 9.97 µM; IC50 ([7]; K1, read-out: P. falc. IC50): 4.1 µM |
| Clc1ccccc1C(c1ccccc1)(c1ccccc1)n1ccnc1 [Clotrimazole] | – | – | – | – | – | – | 32.5 µM | 2.99 µM | – | – | Activity against L. donovani intracellular amastigotes (in words) [6]: active with low selectivity; Activity against P. falciparum (in words) [7]: active |
| Clc1ccc(COC(Cn2ccnc2)c2ccc(Cl)cc2Cl)cc1 (centres unmarked) [Econazole (Nitrate salt), Econazole] | – | – | – | – | – | – | 22.8 µM | 15.6 µM | – | – | Activity against P. falciparum (in words) [7]: active |
| O=C(O)c1nn(Cc2ccc(Cl)cc2Cl)c2ccccc12 [Lonidamine] | 135 µM | 177 µM | 8.66 µM | > 93.4 µM | > 15.6 µM | > 93.4 µM | – | 273 µM | > 11 | – | IC50 [10, 13]: > 93.4 µM |
| Clc1ccc(COC(Cn2ccnc2)c2ccc(Cl)cc2Cl)c(Cl)c1 (centres unmarked) [Miconazole (Nitrate salt), Miconazole] | – | – | – | – | – | – | 23.9 µM | 15.4 µM | – | – | Activity against P. falciparum (in words) [7]: active |
| O=C(Nc1ccc([N+](=O)[O-])cc1Cl)c1cc(Cl)ccc1O [Niclosamide] | 1.67 µM | 2.49 µM | 0.15 µM | > 0.31 µM | 1.14 µM | – | – | 2.3 µM | – | – | Activity against intracellular amastigotes at a fixed concentration ([6]; at a concentration of 0.1 μg/ml): inactive; MCC at 96 h [8, 13]: 1.01 µM; Concentrations toxic to mouse macrophages ([10]; mouse, 96 h): > 300 ng/mL |
| O=C(N/N=C/c1ccc([N+](=O)[O-])o1)c1ccc(O)cc1 [Nifuroxazide] | 0.03 µM | 0.23 µM | < 3 µM | > 10.9 µM | 7.82 µM | 36.2 µM | – | 12.3 µM | 13 | – | selectivity ratio ([1]; rat): 410; selectivity ratio [3]: 54; IC50 [4, 14]: 2.83 µM |
| O=C1CN(/N=C/c2ccc([N+](=O)[O-])o2)C(=O)N1 [Nitrofurantoine] | 0.5 µM | 4.35 µM | < 3 µM | > 41.8 µM | – | 125 µM | – | 90.3 µM | 59 | – | Selectivity index: IC50 Cytotoxicity L6/ IC50 T. b. rhodesiense ([1]; rat): 181; selectivity ratio ([1]; rat, Selectivity index: IC50 Cytotoxicity L6/ IC50 T. b. rhodesiense): 180; selectivity ratio [3]: 21; IC50 [4, 14]: 2.12 µM |
| N=C(N)c1ccc(OCCCCCOc2ccc(C(=N)N)cc2)cc1 [Pentamidine] | 0.01 µM | 4.44 µM | 19.8 µM | 2.63 µM | – | > 29.4 µM | 7.78 µM | 8.87 µM | – | – | Activity against T. b. rhodesiense (in words) [1]: active; selectivity ratio ([1]; rat): 887 |
| COc1cc(NC(C)CCCN)c2ncccc2c1 (centres unmarked) [Primaquine] | – | – | – | – | – | – | – | – | – | 17.9 µM | IC50 ([1]; read-out: T. b. rhod. IC50): 4.78 µM; IC50 [2]: 43.2 µM; IC50 [4, 17]: 48.6 µM; IC50 [6, 18]: 28.2 µM; IC50 at 96 h [8, 19]: > 38.6 µM; IC50 at 96 h ([9]; peritoneal mouse macrophages, read-out: Cytotox. PMM IC50): 39.7 µM |
| CO[C@H]1/C=C/O[C@@]2(C)Oc3c(C)c(O)c4c(O)c(c(/C=N/N5CCN(C)CC5)c(O)c4c3C2=O)NC(=O)/C(C)=C\C=C\[C@H](C)[C@H](O)[C@@H](C)[C@@H](O)[C@@H](C)[C@H](OC(C)=O)[C@@H]1C [Rifampicin] | – | – | < 3 µM | > 36.5 µM | 0.1 µM | > 36.5 µM | – | 75.2 µM | > 24 | > 109 µM | IC50 ([1]; read-out: T. b. rhod. IC50): 16.7 µM; Activity against T. b. rhodesiense (in words) [1]: devoid of antitrypanosomal activity; IC50 [4, 14]: 1.53 µM; IC50 at 96 h [8, 19]: > 36.5 µM |
| CO[C@H]1/C=C/O[C@@]2(C)Oc3c(C)c(O)c4c(O)c(cc(O)c4c3C2=O)NC(=O)/C(C)=C\C=C\[C@H](C)[C@H](O)[C@@H](C)[C@@H](O)[C@@H](C)[C@H](OC(C)=O)[C@@H]1C [Rifamycin SV (Sodium salt), Rifamycin SV] | 0.99 µM | – | < 3 µM | > 13.9 µM | 0.55 µM | 41.6 µM | – | 15.7 µM | – | 50 µM | selectivity ratio [1, 20]: 16; IC50 [4, 14]: 1.5 µM; selectivity ratio at 96 h [5, 21]: 28; selectivity ratio [7, 16]: 29 |
| CCN(CC)CCCCCCNc1cc(OC)cc2c(C)ccnc12 [Sitamaquine] | – | – | – | – | 0.08 µM | – | 21.4 µM | – | – | 22 µM | IC50 ([1]; read-out: T. b. rhod. IC50): 7.39 µM; IC50 [2, 22]: 32.3 µM; Activity against L. donovani axenic amastigotes (in words) [4]: moderate activity; IC50 [4, 17]: 13.7 µM; Activity against L. donovani intracellular amastigotes (in words) [6]: moderate activity; IC50 [6, 18]: 19.5 µM; selectivity ratio [7, 16]: 404; IC50 at 96 h ([8]; mouse peritoneal macrophages infected with L. donovani, infected macrophages, read-out: Cytotox. mac.inf. IC50): > 29.1 µM |
| Clc1ccc(C(Cn2ccnc2)OCc2ccsc2Cl)c(Cl)c1 (centres unmarked) [Tioconazole] | 29.9 µM | 0.064 µM | 9.26 µM | 13.1 µM | 0.63 µM | – | 51.1 µM | 19.5 µM | – | – | Activity against L. donovani intracellular amastigotes (in words) [6]: active with low selectivity; Activity against P. falciparum (in words) [7]: active; selectivity ratio [7, 16]: 31 |
| Cc1cccc(N(C)C(=S)Oc2ccc3ccccc3c2)c1 [Tolnaftate] | – | – | 4.33 µM | 50.1 µM | – | > 97.6 µM | – | – | > 23 | 20 µM | IC50 ([1]; read-out: T. b. rhod. IC50): 69.3 µM; IC50 ([2]; Cytotox. L6 IC50): 84.6 µM; IC50 ([7]; K1, read-out: P. falc. IC50): 19 µM; IC50 at 96 h [8, 19]: > 97.6 µM |
| CN(C)CCCN1c2ccccc2Sc2ccc(C(F)(F)F)cc21 [Triflupromazine] | 1.42 µM | – | – | – | – | – | – | – | – | 15 µM | selectivity ratio [1, 20]: 13; IC50 [2, 22]: 18.5 µM; IC50 [4, 17]: 79.8 µM; IC50 [6, 18]: > 8.51 µM; IC50 ([7]; K1, read-out: P. falc. IC50): 2.72 µM; MCC at 96 h [8, 19]: 28.4 µM |
| Cc1c(C)c2c(c(C)c1O)CCC(C)(COc1ccc(CC3SC(=O)NC3=O)cc1)O2 (centres unmarked) [Troglitazone] | – | – | 4.26 µM | > 67.9 µM | – | > 68 µM | – | – | – | 32.6 µM | IC50 ([1]; read-out: T. b. rhod. IC50): 59.3 µM; IC50 ([2]; Cytotox. L6 IC50): 80.6 µM; selectivity ratio at 96 h [5, 21]: > 16; IC50 ([7]; K1, read-out: P. falc. IC50): 7.27 µM; IC50 at 96 h [8, 19]: > 67.9 µM |
| C[C@@H](c1ncncc1F)[C@](O)(Cn1cncn1)c1ccc(F)cc1F [Voriconazole] | > 286 µM | 11.2 µM | > 286 µM | > 85.9 µM | > 143 µM | > 85.9 µM | – | 195 µM | – | – | – |
| Cc1cn([C@H]2C[C@H](N=[N+]=[N-])[C@@H](CO)O2)c(=O)[nH]c1=O [Zidovudine] | 140 µM | 156 µM | > 374 µM | > 112 µM | 175 µM | > 112 µM | – | 207 µM | – | – | – |
